This is an account of results in patent US4380535A, “Enkephalin degrading enzyme inhibitors” (priority 1981, dated 1983).

Counter-ions that a name gives are not always drawn.

The test system of test [1] is phenylbenozquinone-induced writhing. Description: phenylbenzoquinone-induced writhing test (modified Siegmund). The class given is in vivo. The conditions noted are these: mice, subcutaneous administration, at 15 minutes; limits (10.9-29.7). The procedure:
Biol. Med., 95, 729-731 (1957). According to this procedure, test compound is administered at various doses to ten mice per dose level. The animals then receive intraperitoneal injection with 0.25 ml of the writhing agonist (a 0.02% solution of benzoquinone) 5 min before the beginning of a pre-selected, 10 min observation period. Typical observation periods include 10 to 20, 25 to 35, 40 to 50 and 55 to 65 min following administration of the test compound. The mice are observed during the observation period for the presence of an all-or-none writhing reaction.
If the compound is active, its dose response and ED50 value are determined according to the method of D. J. Finney (Statistical Methods in Biological Assay, Griffin and Co., London, 1964).
Background: In writhing tests, fewer writhes than in controls are read as antinociception.

Test [2] relates to enkephalin-degrading aminopeptidase. In words: inhibition of brain enzyme degradation of 3H-Leu-enkephalin (solubilized rat brain membrane preparation, TLC). Type of test: biochemical. The conditions noted are these: 1.0×10^-3 M inhibitor, 5.0×10^-4 M 3H-Leu-enkephalin, 37° C., 1 hour; control 52%. On the procedure:
The ability of the compounds of the invention to inhibit the brain enzyme degradation of enkephalins was studied in the following test procedure.
Brain enzymes from rats are used in the procedure and for this purpose solubilized rat brain membrane preparation, prepared as follows, is used:
Brains from young male Charles River Co. rats were homogenized in 30 volumes 50 mM Tris pH 7.7 with a Polytron (Brinkmann). The homogenate was centrifuged at 50,000 x g for 15 min. The supernatant was discarded the pellet resuspended in 50 mM Tris pH 7.7 and centrifuged at 50,000 x g for 15 min. The resultant pellet was resuspended, centrifuged and washed 3 additional times as described above. The membrane pellet was solubilized by resuspension in 15 volumes 50 mM Tris pH 7.7, 1% Triton X-100 and incubation at 37° C. for 45 min. […]
This preparation is incubated at 37° C. for 1 hour in the presence of 5.0×10^-4 M ^3 H-Leu-enkephalin in 50 mM tris buffer and 1.0×10^-3 M of the inhibitor to be tested. […] Markers of Leu-enkephalin (LE), tyrosinge (T) and tyrosine-glycine-glucine (TGG) are run with all samples and the relevant areas are scraped into scintillation vials and counted. […]
When N-Me-Tyr-D-Cys-Gly-N-MePhe-Thz-NH2 is tested in this procedure, the percentage of hydrolysis poructs (analyzed by TLC of tagged Leu-enkephalin) is as follows: […]

Another test relates to opiate receptor. In words: opiate receptor affinity, 3H-naloxone displacement in rat brain homogenate (modified Chang). The class given is binding. To be noted: 3H-naloxone displacement (ID50) relative to morphine, with NaCl.

In test [1], `CN[C@@H](Cc1ccc(O)cc1)C(=O)N[C@H](CS)C(=O)NCC(=O)N(C)[C@@H](Cc1ccccc1)C(=O)N1CSC[C@H]1C(N)=O` [N-Me-Tyr-D-Cys-Gly-N-MePhe-Thz-NH2, N^α -Methyl-L-tyrosyl-D-cysteinyl-glycyl-N-methyl-L-phenylalanyl-L-thiazolidine-4-carboxamide, acetate salt] came in with an ED50 of 18 mg/kg. Further, the “percentage of hydrolysis products: Tyr” value in test [2] is listed as 14%. Also, the “relative displacement potency as compared to morphine (1)” value in the test on opiate receptor was determined as 2.6.

What is called ED50 is the dose that gives a 50% effect, or the effect in half of the subjects. The low end stands for an effect at a small dose, the high end for a need for a large dose.
